Legend:
HSV = settings: continuous suppressive administration, early intervention; cited from earlier work
[1] = test system: patients and healthy volunteers; settings: over 900 patients and healthy volunteers
From the text: GLA is a fully synthetic TLR4 agonist, which has been examined in over 900 patients and healthy volunteers as an adjuvant with NY-ESO-1 protein and with infectious agent antigens such as in flu vaccines. […] A higher Mug dose cohort is currently being examined in this Phase 1 trial.

| SMILES | reduction of HSV transmission (HSV) | safety profile [1] |
| --- | --- | --- |
| CC(C)[C@H](N)C(=O)OCCOCn1cnc2c(=O)[nH]c(N)nc21 [Valacyclovir] | less than 50% |  |
| CCCCCCCCCCCCCC(=O)O[C@H](CCCCCCCCCCC)CC(=O)O[C@@H]1[C@@H](NC(=O)C[C@H](CCCCCCCCCCC)OC(=O)CCCCCCCCCCCCC)[C@H](OC[C@H]2O[C@H](O)[C@H](NC(=O)C[C@H](O)CCCCCCCCCCC)[C@@H](OC(=O)C[C@H](O)CCCCCCCCCCC)[C@@H]2O)O[C@H](CO)[C@H]1OP(=O)(O)O [GLA, glucopyranosyl lipid A] |  | established safety profile |
